Measurements published in patent US5223509A, “β-carbolines as cholecystokinin and gastrin antagonists” (priority 1992, dated 1993).
Non-standard residues stand in square brackets, D forms with d. Residues, ends and D or L forms follow the SMILES beside them. *: point of attachment. sY = N[C@@H](Cc1ccc(OS(=O)(=O)O)cc1)C(=O)O; Cbz = O=C(OCc1ccccc1)*

Tests used:
proteases = conditions: limits duration of activity; cited from earlier work
CCK = conditions: recently reported, J. M. Howard et al.; cited from earlier work
[1] = target: T1, gastrin receptor (gastric glands) (Cavia porcellus, UniProt H0VZC5); experiment: Gastrin Receptor Binding in Guinea Pig Gastric Glands, 125I-gastrin; set-up: species or system guinea pig (male Hartley); conditions: 25° C., 30 minutes
T1 construct: from tissue; host or cells: guinea pig gastric mucosal glands (male Hartley)
T1 sequence (H0VZC5 1-426): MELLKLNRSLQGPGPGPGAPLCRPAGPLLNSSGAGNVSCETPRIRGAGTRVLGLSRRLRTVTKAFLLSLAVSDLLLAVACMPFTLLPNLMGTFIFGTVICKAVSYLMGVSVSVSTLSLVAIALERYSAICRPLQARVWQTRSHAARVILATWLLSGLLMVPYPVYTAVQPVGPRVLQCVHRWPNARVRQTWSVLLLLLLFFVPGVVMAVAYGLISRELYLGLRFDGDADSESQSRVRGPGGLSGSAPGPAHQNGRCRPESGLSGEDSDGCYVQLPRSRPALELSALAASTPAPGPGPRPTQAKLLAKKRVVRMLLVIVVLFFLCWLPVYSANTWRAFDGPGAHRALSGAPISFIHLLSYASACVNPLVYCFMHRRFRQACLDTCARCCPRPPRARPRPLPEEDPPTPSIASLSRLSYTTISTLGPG
Procedure: Gastrin antagonist activity of compounds of Formula I was determined using the following assay.
Gastrin Receptor Binding in Guinea Pig Gastric Glands Preparation of guinea pig gastric mucosal glands
Guinea pig gastric mucosal glands were prepared by the procedure of Berglingh and Obrink Acta Physiol. Scand. 96: 150 (1976) with a slight modification according to Praissman et al. C. J. Receptor Res. 3: (1983). Gastric mucosa from guinea pigs ( 300-500 g body weight, male Hartley) were washed thoroughly and minced with fine scissors in standard buffer consisting of the following: 130 mM NaCl, 12 mM NaHCo3, 3 mM NaH2 PO4, 3 mM Na2 HPO4, 3 mM K2 HPO4, 2 mM MgSO4, 1 mM CaCl2, 5 mM glucose and 4 mM L-glutamine, 25 mM HEPES at pH 7.4. The minced tissues were washed and then incubated in a 37° C. shaker bath for 40 minutes with the buffer containing 0.1% collagenase and 0.1% BSA and bubbled with 95% o2 and 5% CO2. The tissues were passed twice through a 5 ml glass syringe to liberate the gastric glands, and then filtered through 200 mesh nylon. The filtered glands were centrifuged at 270 g for 5 minutes and washed twice by resuspension and centrifugation.
The washed guinea pig gastric glands prepared as above were resuspended in 25 ml of standard buffer containing 0.25 mg/ml of bacitracin. For binding studies, to 220 μl of gastric glands in triplicate tubes, 10 μl of buffer (for total binding) or gastrin (1 μM final concentration, for nonspecific binding) or test compound and 10 μl of ^125 I-gastrin (NEN, 2200 Ci/mmole, 25 pM final) or ^3 H pentagastrin (NEN 22 Ci/mmole, 1 nM final) were added. The tubes were aerated with 95% O2 and 5% CO2 and capped. The reaction mixtures after incubation at 25° C. for 30 minutes were filtered under reduced pressure on glass G/F B filters (Whatman) and immediately washed further with 4×4 ml of standard buffer containing 0.1% BSA. The radioactivity on the filters was measured using a Beckman gamma 5500 for ^125 I-gastrin or liquid scintillation counting for ^3 H-pentagastrin.

CCK receptor (pancreas) = target: T2, CCK receptor (pancreas) (Rattus norvegicus, UniProt P30551); experiment: CCK Receptor Binding (Pancreas), 125I-CCK-33; set-up: species or system rat (male Sprague-Dawley); conditions: for IC50: rat pancreas membranes, 125I-CCK-33, 37° C., 30 minutes; for effect on the 125I-CCK receptor binding assay: added protease inhibitors
T2 construct: The whole pancreas was dissected free of fat tissue and was homogenized; from tissue; host or cells: rat pancreas membranes (male Sprague-Dawley)
T2 sequence (P30551 1-444): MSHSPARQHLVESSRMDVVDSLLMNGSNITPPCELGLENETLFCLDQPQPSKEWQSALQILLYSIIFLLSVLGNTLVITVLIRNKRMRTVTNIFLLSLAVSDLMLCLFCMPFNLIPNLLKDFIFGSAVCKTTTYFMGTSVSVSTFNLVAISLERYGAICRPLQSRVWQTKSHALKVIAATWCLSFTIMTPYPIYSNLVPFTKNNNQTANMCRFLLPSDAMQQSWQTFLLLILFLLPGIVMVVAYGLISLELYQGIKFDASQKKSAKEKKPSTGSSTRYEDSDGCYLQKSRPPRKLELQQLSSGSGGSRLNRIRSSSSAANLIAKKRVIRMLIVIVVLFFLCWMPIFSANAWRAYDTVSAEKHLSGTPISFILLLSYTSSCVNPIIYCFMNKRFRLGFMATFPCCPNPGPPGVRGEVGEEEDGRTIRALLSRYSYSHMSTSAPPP
Procedure: 1. CCK Receptor BindinG (Pancreas)
CCK-33 was radiolabeled with ^125 I-Bolton Hunter reagent (2000 Ci/mmole) as described by Sankara et al. (J. Biol. Chem. 254: 9349-9351, 1979). Receptor bindinG was performed according to Innis and Snyder (Proc. Natl. Acad. Sci. 77: 6917-6921, 1980) with the minor modification of adding the additional protease inhibitors, phenylmethane sulfonyl fluoride and o-phenanthroline. The latter two compounds have no effect on the ^125 I-CCK receptor bindinG assay.
Male Sprague-Dawley rats (200-350 g) were sacrificed by decapitation. The whole pancreas was dissected free of fat tissue and was homogenized in 20 volumes of ice-cold 50 mM, Tris HCl (pH 7.7 at 25° C.) with a Brinkmann Polytron PT 10. The homogenates were centrifuged at 48,000 g for 10 min. Pellets were resuspended in Tris Buffer, centrifuged as above and resuspended in 200 volumes of binding assay buffer (50 mM Tris HCl, pH 7.7 at 25° C., 5 mM dithiothrietol, 0.1 mM bacitracin, 1.2 mM phenylmethane sulfonyl fluoride and 0.5 mM o-phenanthroline). For the binding assay, 25 μl of buffer (for total binding) or unlabeled CCK-8 sulfate to give a final concentration of 1 μM (for nonspecific binding) or the compounds of Formula I (for determination of inhibition of ^125 I CCK binding) and 25 μl of ^125 I-CCK 33 (30,000-40,000 cpm) were added to 450 μl of the membrane suspensions in microfuge tubes. All assays were run in duplicate or triplicate. The reaction mixtures were incubated at 37° C. for 30 minutes and centrifuged in a Beckman Microfuge (4 minutes) immediately after adding 1 ml of ice-cold incubation buffer. The supernatant was aspirated and discarded, pellets were counted with a Beckman gamma 5000. For Scatchard analysis (Ann. N.Y. Acad. Sci. 51: 660, 1949), ^125 I CCK 33 was progressively diluted with increasing concentrations of CCK 33.
1. Effect of The Compounds of Formula I on ^125 I-CCK-33 receptor binding
The preferred compounds of Formula I are those which inhibited specific ^125 I-CCK-33 binding in a concentration dependent manner.
A Ki value (dissociation constant of inhibitor) of the compounds of Formula I was estimated.

[2] = target: T3, CCK receptor (brain, cerebral cortex) (Cavia porcellus, UniProt H0VZC5); experiment: CCK Receptor Binding (Brain), 125I-CCK-33; set-up: species or system guinea pig (male Hartley); conditions: guinea pig cerebral cortex, 25° C., 2 hours
T3 construct: Cerebral cortex was dissected and used as a receptor source; from tissue; host or cells: guinea pig cerebral cortex membranes (male Hartley)
T3 sequence (H0VZC5 1-426): T1 sequence (H0VZC5 1-426)
Procedure: 2. CCK Receptor Binding (Brain)
CCK 33 was radiolabeled and the binding was performed according to the description for the pancreas method with modifications according to Saito et al., J. Neurochem. 37:483-490, 1981.
Male Hartley guinea pigs (300-500 g) were sacrificed by decapitation and the brains were removed and placed in ice-cold 50 mM, Tris HCl plus 7.58 g/1 Trizma-7.4 (pH 7.4 at 25° C.). Cerebral cortex was dissected and used as a receptor source. Each gram of fresh guinea pig brain tissue was homogenized in 10 ml of Tris/Trizma buffer with a Brinkman polytron PT-10. The homogenates were centrifuged at 42,000 g for 15 minutes. Pellets were resuspended in Tris Buffer, centrifuged as above and resuspended in 200 volumes of binding assay buffer (10 mM N-2 -hydroxyethyl-piperazine-N'-2-ethane sulfonic acid (HEPES), 5 mM MgCl2, 0.25 mg/ml bacitracin, 1 mM ethylene glycol-bis-(β-aminoethylether-N,N'-tetraacetic acid) (EGTA), and 0.4% bovine serum albumin (BSA)). For the binding assay, 25 μl of buffer (for total binding) or unlabeled CCK-8 sulfate to give a final concentration of 1 μm (for nonspecific binding) or the compounds of Formula I (for determination of inhibition of ^125 I CCK binding) and 25 μl of ^125 I-CCK-33 (30,000-40,000 cpm) were added to 450 μl of the membrane suspensions in microfuge tubes. All assays were run in duplicate or triplicate. The reaction mixtures were incubated at 25° C. for 2 hours and centrifuged in a Beckman Microfuge (4 minutes) immediately after adding 1 ml of ice cold incubation buffer. The supernatant was aspirated and discarded, pellets were counted with a Beckman gamma 5000.

Structure (SMILES)	IC50 [1] [µM]	IC50 (CCK receptor (pancreas)) [µM]	IC50 [2] [µM]	further results
CSCC[C@H](NC(=O)[C@H](Cc1ccc(OS(=O)(=O)O)cc1)NC(=O)OCc1ccccc1)C(=O)NCC(=O)N[C@@H](Cc1c[nH]c2ccccc12)C(=O)N[C@@H](CCSC)C(=O)N[C@@H](CC(=O)O)C(N)=O [Cbz-Tyr(SO3 H)-Met-Gly-Trp-Met-Asp-NH2] (Cbz-[sY]MGWMD-NH2)				degradation by proteases (proteases): liable to degradation by proteases; CCK agonist/antagonist character (CCK): partial agonist
Nc1cc2c(cn1)[nH]c1ccccc12 [Example 2, 3-Amino-9H-pyrido(3,4-b)indole]	> 100	> 100	> 100	
O=C(Nc1cc2c(cn1)[nH]c1ccccc12)c1ccc(Cl)cc1 [Example 3, 4-Chloro-N-9H-pyrido(3.4-b)indol-3-yl-benzamide]		3.5		
O=C(Nc1cc2c(cn1)[nH]c1ccccc12)c1cccs1 [Example 5, N-9H-Pyrido(3,4-b)indol-3-yl 2 thiophene Carboxamide]	> 100	9.8	~130	
Cn1c(C(=O)Nc2cc3c(cn2)[nH]c2ccccc23)cc2ccccc21 [Example 6, N-9H-Pyrido(3,4-b)indol-3-yl-1-methyl-1H-indole-2-carboxamide]	> 100	0.71	> 100	
O=C(Nc1cc2c(cn1)[nH]c1ccccc12)c1ccccc1 [Example 8, N-9H-Pyrido(3,4-b)indol-3-yl benzamide]	> 100	7.1	223	
c1cnc2c(c1)ccc1cccnc12 [o-phenanthroline, reference compound]				effect on the 125I-CCK receptor binding assay (CCK receptor (pancreas)): no effect
O=S(=O)(F)Cc1ccccc1 [phenylmethane sulfonyl fluoride, reference compound]				effect on the 125I-CCK receptor binding assay (CCK receptor (pancreas)): no effect

The next lines start with results.

IC50 [1] [µM]	IC50 (CCK receptor (pancreas)) [µM]	IC50 [2] [µM]	Structure (SMILES)	further results
	0.085		O=C(Nc1ccc(Cl)cc1)Nc1cc2c(cn1)[nH]c1ccccc12 [Example 4, N-(4-Chlorophenyl)-N^1 9-H-pyrido(3,4-b)indol-3-yl-urea]	
	0.024		O=C(Cc1c[nH]c2ccccc12)Nc1cc2c(cn1)[nH]c1ccccc12 [Example 7, N-9H-Pyrido(3,4-b)indol-3-yl-1H-indole 3-acetamide]	
14	0.04	34	O=C(Cc1ccccc1)Nc1cc2c(cn1)[nH]c1ccccc12 [Example 9, N-9H-Pyrido(3,4-b)indol-3-yl benzene Acetamide]	
	0.33		O=C(CCc1ccccc1)Nc1cc2c(cn1)[nH]c1ccccc12 [Example 10, N-9H-Pyrido(3,4-b)indol-3-yl benzene Propanamide]	
